Measurements: US20230374103A1, “Wnt SIGNALING PATHWAY INHIBITOR” (OSAKA UNIVERSITY, priority 2020, published 2023)
Residues, ends and D or L forms follow the SMILES beside them.

Key:
[1] = system: bleomycin-induced scleroderma model; assay: Late administration test in bleomycin-induced scleroderma model; format: in vivo, C57BL6/J mice; conditions: 800 μg/mouse i.p. 5 days/week for 14 days after 14 days of bleomycin
Procedure: (§1) As test animals, C57BL6/J mice (female, 8 weeks were prepared. 200 μg/mouse of bleomycin was subcutaneously injected at a frequency of 5 days/week for 14 days. Subsequently, 800 μg/mouse of saline or RANKL peptide was intraperitoneally administered at a frequency of 5 days/week for 14 days. The nice were sacrificed after 14 days (28 days after the start of bleomycin administration), and the skin tissue of the bleomycin-administered portion was stained with Masson's trichrome to evaluate fibrosis. Further, the expression of collagen gene mRNA, which is a fibrosis index, in the skin was evaluated.

[2] = system: A549 cells; assay: Migration/invasion assay of A549 cells (Boyden chamber / Matrigel Invasion chamber); format: cell-based, human
Procedure: The influence of RANKL peptide on the migration and invasion of A549 cells was examined. Specifically, the following procedure was performed. A chamber of an 8-μm polycarbonate membrane filter (Neuro Probe) was installed in the upper compartment of a Boyden chamber (48-well Chamber, Neuro Probe), A549 cells were seeded in serum-free DMEM containing MHP1-AcN, and DMEM containing 10% FBS was placed in the lower compartment, followed by incubation at 37° C. for 15 hours. In the invasion assay, the upper compartment was Matrigel Invasion chamber (Corning Life Science). Similar A549 cells were seeded in serum-free medium containing MHP1-AcN, and DEM containing 10% FBS was placed in the lower compartment. Cells adhering to the upper surface of each upper compartment were detached, the lower surface was stained with Diff-Quick (Sysmex), and the number of cells was counted under a microscope.

[3] = system: bleomycin-induced scleroderma model; assay: Early administration test in bleomycin-induced scleroderma model; format: in vivo, C57BL6/J mice; conditions: 800 μg/mouse i.p. 5 days/week for 14 days in parallel with bleomycin
Procedure: as §1, with “weeks old)” for “weeks”, “days, and in parallel with this,” for “days. Subsequently,”, “body weight was measured periodically during the dosing period. The mice” for “nice”, “sacrificed” for “sacrificed after”, “14” for “14 days (28”, “administration” for “bleomycin administration),”

[4] = system: α-SMA and Colla1 expression (EMT); assay: Expression of α-SMA and Colla1 induced by TGF-β in MRC-5 cells (real-time RT-PCR); format: cell-based
Procedure: The influence of RANKL peptide on the expression of α-SMA and Colla1 induced by TGF-β was examined. Specifically, the following procedure was performed. After pretreatment of MHP1 with MRC-5 cells for 24 hours, 2 ng/m/ of TGFβ was added, the cells were collected after 24 hours, and mRNA levels were determined by real-time RT-PCR.

[5] = system: bleomycin-induced pulmonary fibrosis model; assay: Administration test in bleomycin-induced pulmonary fibrosis model; format: in vivo, C57BL6/J mice; conditions: 800 μg/mouse i.p. once, bleomycin intratracheally, 14 days
Procedure: As test animals, C57BL6/J mice (female, 8 weeks old) were prepared. Saline or RANKL peptide (800 μg/mouse) was administered intraperitoneally, and immediately thereafter, saline or bleomycin (0.05 μg/mouse) was directly administered intratracheally. The mice were sacrificed 14 days after administration, the lung weight and body weight were measured, and the lung weight/body weight ratio was determined. In addition, the lung tissue, was stained with Masson's trichrome, and Masson's trichrome score evaluation (0: normal, 1: fibrotic lesions predominantly at the margin of the lung, 2: marginal or global multifocal fibrotic lesions, 3: fibrotic lesions in approximately ⅓ of the area, 4: fibrotic lesions accounting for ⅔ or more of the area) was performed based on the stained images. Further, the expression of fibrosis marker gene mRNA in lung tissue was evaluated.

[6] = system: Wnt signaling activation by RSPO; assay: Wnt signaling inhibition test (β-catenin responsive element luciferase reporter); format: cell-based; conditions: HEK293 reporter cells; 50 ng/mL wnt3a + 20 ng/mL RSPO1/2/3; 24 hours; peptide tested MHP1-7 (FIG. 2)
Procedure: HEK293 cells expressing luciferase under the control of β-catenin responsive element were plated on a 96 -well plastic plate (1×10^4 cells/well) and incubated in the presence or absence of 50 ng/mL of recombinant mouse wnt3a (R&D System, #1324-WN) and recombinant human RSPO1 (R&D System, #4645-RS), recombinant human RSPO2 (PeproTech, #120-43), or recombinant human RSPO3 (PeproTech, #120-44). When these were added at the same time as RANKL peptide, 50 ng/mL of recombinant mouse wnt3a and 20 ng/mL of RSPO1/2/3 were used. After incubation for 24 hours, luciferase activity was analyzed using a luciferase assay system (Promega) and a microplate luminometer (Centro XS3 LB960; Berthold Technologies). The protein concentration of each sample was measured using Takara Bradford Protein Assay Kit (Takara Bio Inc.). The results of luciferase activity were normalized to the protein concentration of each sample.

[7] = system: smad2/3; assay: smad2/3 activation induced by TGF-β in MRC-5 cells (WB); format: cell-based; conditions: 24 hours pretreatment, 5 ng/ml TGFβ, 10 minutes, MHP1-AcN (FIG. 17)
Procedure: The influence of RANEL peptide on smad2/3 activation induced by TGF-β was examined. Specifically, the following procedure was performed. After pretreatment of MRC-5 cells with MHP1 for 24 hours, 5 ng/ml of TGFβ was added to the medium, the medium was collected after 10 minutes, and WB was performed.

[8] = system: A549 cell xenograft; assay: A549 cell xenograft model; format: in vivo, BALB/cAJcl-nu/nu; conditions: 600 μg/mouse every day, up to 49 days
Procedure: The influence of RANKL peptide on cancer in an A549 cell xenograft model was examined. Specifically, the following procedure was performed. 2×10^6 cells were administered subcutaneously to BALB/cAJcl-nu/nu […]. After one day, 600 μg/mouse of MHP1 was administered every day, and the tumor size was measured up to 49 days. Further, the tumor weight was measured.

[9] = MRC-5 cells, 24 hours pretreatment, TGFβ 24 hours, 10, 30, 100 μg/ml MHP1-AcN (FIG. 19)

For `CC[C@H](C)[C@H](NC(=O)[C@H](CO)NC(=O)[C@@H](NC(=O)[C@H](CCCCN)NC(=O)[C@@H](NC(=O)[C@@H](NC(=O)[C@H](Cc1ccc(O)cc1)NC(=O)[C@@H](NC(=O)[C@H](CCSC)NC(=O)[C@H](CC(C)C)NC(C)=O)C(C)C)C(C)C)C(C)C)[C@@H](C)O)C(=O)N[C@@H](CCCCN)C(=O)N[C@H](C(=O)N1CCC[C@H]1C(=O)N[C@@H](CO)C(=O)N[C@@H](CO)C(=O)N[C@@H](Cc1c[nH]cn1)C(=O)N[C@@H](CC(N)=O)C(=O)N[C@@H](CC(C)C)C(=O)N[C@@H](CCSC)C(=O)N[C@@H](CCCCN)C(=O)NCC(=O)NCC(=O)N[C@@H](CO)C(=O)N[C@H](C(=O)N[C@@H](CCCCN)C(=O)N[C@@H](CC(N)=O)C(=O)N[C@@H](Cc1c[nH]c2ccccc12)C(=O)N[C@@H](CO)C(=O)NCC(=O)N[C@@H](CC(N)=O)C(N)=O)[C@@H](C)O)[C@@H](C)CC` [MHP1-7] (Ac-LMVYVVKTSIKIPSSHNLMKGGSTKNWSGN-NH2), the “skin thickening and fibrosis (Masson's trichrome, dermis thickness)” value ([1]; MHP1-7 (FIG. 8)) was “inhibited”, the “expression of the collagen gene mRNA (Colla1, Colla2) in skin” value ([1]; MHP1-7 (FIGS. 9, 10)) was “inhibited” and the “migration of lung cancer cells (number of cells)” value ([2]; A549 cells, Boyden chamber, 15 hours, MHP1-AcN (FIG. 15)) was “inhibited”. The “invasion of lung cancer cells (number of cells)” value ([2]; A549 cells, Matrigel Invasion chamber, MHP1-AcN (FIG. 15)) was “inhibited”, the “Wnt signaling pathway in A549 cells” value ([2]; migration/invasion test) was “inhibited” and the “skin thickening and fibrosis (Masson's trichrome, dermis thickness)” value ([3]; MHP1-7 (FIG. 5)) was “inhibited”. For the same compound, the “expression of the collagen gene mRNA in skin” value ([3]; MHP1-7 (FIG. 6)) was “inhibited”, the “weight loss (body weight)” value ([3]; MHP1-7 (FIG. 7)) was “suppressed” and the “expression of Colla1 induced by TGF-β” value [4, 9] was “inhibited”. The “expression of α-SMA (ACTA2) induced by TGF-β” value [4, 9] was “inhibited”, the “EMT (epithelial-mesenchymal transition)” value ([4]; concluded from α-SMA and Colla1 expression in MRC-5 cells) was “inhibited” and the lung weight gain ([5]; MHP1-7 (FIG. 11)) was “suppressed”. The “weight loss (body weight)” value ([5]; MHP1-7 (FIG. 11)) was “suppressed”, the “expression of the fibrosis marker gene mRNA in lung tissue” value ([5]; MHP1-7 (FIG. 12)) was “inhibited” and the “lung tissue fibrosis (Masson's trichrome score)” value ([5]; MHP1-7 (FIG. 13)) was “inhibited”. The “Wnt signaling activation by RSPO (luciferase activity normalized to protein concentration)” value [6] was “inhibited”, the “smad2/3 activation induced by TGF-β” value [7] was “inhibited” and the “influence on the degree of weight gain” value [8] was “not confirmed”. The “growth of cancer (tumor volume)” value ([8]; MHP1-AcN (FIG. 16)) was “inhibited”.
